Test results as given in patent US10761085B2, “Method for determining a protein-protein interaction” (MEDICAL & BIOLOGICAL LABORATORIES CO., LTD., priority 2014, dated 2020).
Blank lines part the entries; values can stand above or below the compound they belong to.

What was measured:
[1] = target: T1, FKBP12 mutant homodimer formation (Homo sapiens, UniProt P62942, F37V); experiment: Fluorescent focus detection of FKBP12 mutant homodimer formation, PB1-mAG1-FKBP12 mutant transiently expressed in HEK293 cells (Example 1); format: cell-based; settings: 500 nM
T1 construct: expressed in transfected cells; host or cells: HEK293
Method: Next, the pPB1-hmAG1-FKBP12 mutant prepared as described above was introduced into HEK293 cells, and the fusion protein according to the present invention was expressed in the cells. Specifically, first, HEK293 cells were cultured in DMEM (high glucose, manufactured by SIGMA ALDRICH CO.) supplemented with 10% FBS (manufactured by Equitech-Bio Inc.) and 1% penicillin-streptomycin (manufactured by Life Technologies Corporation). Then, on the day before the transfection, the HEK293 cells cultured in this manner were seeded onto an 8-well chamber slide (manufactured by Nunc A/S), and cultured in 200 μL of the culture solution per well. Subsequently, 100 ng of the pPB1-hmAG1-FKBP12 mutant was diluted with 10 μL of OptiMEM (manufactured by Life Technologies Corporation), and 0.4 μL of Turbofect Transfection Reagent (manufactured by Thermo Fisher Scientific Inc.) was added thereto and then stirred. Thereafter, the resultant was further mixed with 100 μL of the culture solution, then added to the HEK293 cells, and cultured for 20 hours.
After the transfection treatment, the HEK293 cells were observed using an IX-71 inverted fluorescence microscope (manufactured by Olympus Corporation, the magnification of the objective lens: 20×), a U-MGFPHQ filter (manufactured by Olympus Corporation), and an ORCA-ER digital camera (manufactured by Hamamatsu Photonics K. K.). […]
Target sequence in this assay (P62942 whole entry F37V): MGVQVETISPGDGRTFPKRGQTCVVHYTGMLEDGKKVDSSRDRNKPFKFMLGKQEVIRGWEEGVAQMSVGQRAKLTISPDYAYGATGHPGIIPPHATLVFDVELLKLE

[2] = target: T1, FKBP12 mutant homodimer formation; experiment: Reversible FKBP12 mutant homodimer formation in HEK293 cells constitutively expressing PB1-hmAG1-FKBP12 mutant, spot detection image analysis (Example 2); format: cell-based
Method: The pPB1-hmAG1-FKBP12 mutant was introduced into HEK293 cells, and cells constitutively expressing the fusion protein according to the present invention (PB1-hmAG1-FKBP12 mutant) were prepared. Specifically, on the day before the introduction of the expression vector, HEK293 cells were seeded onto a 35-mm dish (manufactured by BD Falcon), and cultured in 1.5 mL of the culture solution. Then, 1 μg of the pPB1-hmAG1-FKBP12 mutant was diluted with 100 μL of OptiMEM (manufactured by Life Technologies Corporation), and 10 μL of PolyFect (registered trademark) Transfection Reagent (manufactured by QIAGEN N.V.) was added thereto and then stirred. […] Thereafter, G418 was added thereto at a concentration of 500 μg/mL, and further cultured for one week. After that, viable cells were detached using a trypsin solution, diluted with a culture solution containing G418 (500 μg/ml), and then cultured in a 96-well plate at 0.5 cells/well. […]
The images captured over time by the above method were analyzed using spot detection (spot detector) of an icy image analysis program (icy.bioimageanalysis.org/). Moreover, from the images, a graph was created in which the X axis represents the operation time (minutes), and the Y axis represents a numerical value of a total fluorescence intensity in regions of the fluorescent foci within boxes drawn around the regions by lines.
Target sequence in this assay (P62942 whole entry F37V): as above

[3] = target: T1, FKBP12 mutant homodimer formation; experiment: Comparative Example 1: method of PTL 4 (PB1-FKBP12 mutant and AG-FKBP12 mutant) for FKBP12 mutant homodimer formation in HEK293 cells; format: cell-based; settings: method of PTL 4, 66 minutes after the drug addition
Method: In the detection system described in PTL 4, the PB1 domain of the p62 protein was selected as the association-inducing protein. Moreover, AG was selected as the fluorescent multimerizable protein, and a DNA encoding humanized-codon AG (hAG) was used.
Further, an expression vector (pPB1-FKBP12 mutant) encoding a fusion protein composed of the FKBP12 mutant fused to the C-terminus of the PB1 domain of the p62 protein was prepared as follows. Specifically, a DNA having the nucleotide sequence of SEQ ID NO: 31 was artificially synthesized which contained restriction enzyme sites at either end of a DNA having a nucleotide sequence encoding the FKBP12 mutant (the DNA encoding a protein having the amino acid sequence of SEQ ID NO: 32). Then, the obtained synthetic DNA was cleaved with EcoRI and XhoI, and inserted into pAsh-MCLinker (manufactured by MEDICAL & BIOLOGICAL LABORATORIES CO., LTD.) having been treated with a combination of the same restriction enzymes. Thus, a pPB1-FKBP12 mutant was constructed. […]
Further, 100 ng of each of the expression vectors thus constructed was mixed, that is, 200 ng of these were mixed in total, and fluorescent foci in cells before and after the drug addition were detected according to the same methods as <Cell Culturing and Transfection> and <Observation of Cells> described in Example 1.
Target sequence in this assay (P62942 2-108 F37V limits assumed): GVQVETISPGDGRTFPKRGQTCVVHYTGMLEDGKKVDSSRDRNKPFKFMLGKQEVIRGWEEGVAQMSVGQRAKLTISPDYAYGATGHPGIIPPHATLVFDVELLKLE

[4] = target: T1, FKBP12 mutant homodimer formation; experiment: FKBP12 mutant homodimer formation with DG1 or mCherry as fluorescent protein, HEK293 cells (Example 8); format: cell-based; settings: 500 nM, 1, 2 and 3 hours, room temperature; PB1-DG1-FKBP12 mutant and PB1-mCherry-FKBP12 mutant
Description: To express the PB1-hDG1-FKBP12 mutant or the PB1-mCherry-FKBP12 mutant in cells, the vectors encoding these fusion proteins were introduced into HEK293 cells by the same method as that described in Example 4.
After the transfection treatment, the HEK293 cells were observed using an IX-81 inverted microscope and an ORCA-Flash 4.0 digital camera. A U-MNIBA3 filter (manufactured by Olympus Corporation) and a U-MWIG3 filter (manufactured by Olympus Corporation) were used respectively for the DG1 and mCherry observations. The homodimer formation of the FKBP12 mutant was induced by adding 500 nM B/B Homodimerizer. After the drug addition, the resultant was left standing at room temperature. The cells were observed after 1, 2, and 3 hours elapsed. FIGS. 22 and 23 show images before the drug addition and 1, 2, and 3 hours after the addition.
Target sequence in this assay (P62942 2-108 F37V limits assumed): as above

[5] = target: T1, FKBP12 mutant homodimer formation; experiment: FKBP12 mutant homodimer formation with SAM domain of Tankyrase 1 as multimerizable protein, HEK293 cells (Example 9); format: cell-based; settings: 500 nM, 3 hours, room temperature; Tankyrase-mAG1-FKBP12 mutant
Method: HEK293 cells were cultured in DMEM (high glucose) supplemented with 10% FBS and 1% penicillin-streptomycin. Then, on the day before the transfection, the cells were seeded onto an 8-well chamber slide. The cells were cultured in 200 μL of the culture solution per well. Subsequently, a DNA solution was prepared by mixing 200 ng of the plasmid with 10 μL of OptiMEM, and 0.8 μl of Fugene HD (manufactured by Promega Corporation) was added thereto and then stirred. The resultant was further mixed with 100 μl of the culture solution, then added to the HEK293 cells, and cultured for 20 hours.
After the transfection treatment, the HEK293 cells were observed using an IX-81 inverted microscope and an ORCA-Flash 4.0 digital camera. A U-MNIBA3 filter was used for the observation. The homodimer formation of the FKBP12 mutant was induced by adding 500 nM B/B Homodimerizer to the medium. In addition, after the drug was added, the resultant was left standing at room temperature. The cells were observed after 3 hours elapsed.
Target sequence in this assay (P62942 2-108 F37V limits assumed): as above

[6] = tested on: calmodulin and M13 peptide tetramer formation (H1 receptor, calcium ion); settings: 100 μM
Method: To express the fusion proteins in a combination of the following (A) or (B), the plasmid vectors prepared above were introduced into HeLaS3 cells by a method described below: • (A) Calumodulin-mAG1 and M13peptide-PB1; and • (B) Calumodulin-mUkG1 and M13peptide-PB1.
First, HeLaS3 cells were cultured in DMEM (low glucose) containing 10% FBS (manufactured by Equitech-Bio Inc.). Then, on the day before the transfection, the HeLaS3 cells were seeded onto a 35-mm glass base dish (manufactured by Asahi Glass Co., Ltd.). Subsequently, at the time of the transfection, the plasmids (1 μg+1 μg) were diluted with OptiMEM, and 10 μl of PolyFect(registered trademark) Transfection Reagent was added thereto and stirred. The resultant was further mixed with 600 μl of the culture solution, thereafter added to the HeLaS3 cells, and cultured for 22 hours.
Then, 100 μM histamine (manufactured by Wako Pure Chemical Industries, Ltd.) was added thereto, and fluorescence images were captured over time.

[7] = tested on: homodimer formation of ERK2; experiment: Fluorescent focus detection of ERK2 homodimer formation after EGF, serum-starved HEK293 cells (Example 11); format: cell-based
Method: HEK293 cells were selected as cells into which the expression vectors prepared above were introduced. The cells were first cultured in DMEM (high glucose) supplemented with 10% FBS (manufactured by Equitech-Bio Inc.) and 1% penicillin-streptomycin. Then, on the day before the introduction of the expression vectors, these cells were seeded onto a 35-mm dish, and cultured in 1.5 ml of the culture solution. […] Thereafter, each solution of the expression vectors was added to the cultured cells. The pERK2-hmAG1PB1 transfected cells were observed 20 hours after the vector introduction. To the pERK2-PB1-hmAG1 transfected cells, G418 was added at a concentration of 500 μg/mL, and further cultured for one week. After that, viable cells were detached using a trypsin solution, diluted with a culture solution containing G418 (500 μg/ml), and then cultured in a 96-well plate at 0.5 cells/well. Subsequently, cells which formed single colonies were cultured to expand.
Then, the cells were observed using an IX-71 inverted fluorescence microscope (the magnification of the objective lens: 20×), a U-MGFPHQ filter, and an ORCA-ER digital camera. The homodimer formation of ERK2 was induced by adding EGF (epidermal growth factor, manufactured by Sigma-Aldrich Co.) to the buffer to the final concentration of 50 ng/ml. FIGS. 26 and 27 show images before the EGF addition and 8 minutes after the addition.

[8] = tested on: homodimer formation of STAT3; experiment: Fluorescent focus detection of STAT3 homodimer formation after IL-6, HEK293 cells constitutively expressing PB1-mAG1-STAT3 (Example 12); format: cell-based; settings: 100 ng/ml, 50 minutes; none before addition
Method: HEK293 cells were selected as cells into which the expression vector prepared above was introduced. The cells were first cultured in DMEM (high glucose) supplemented with 10% FBS and 1% penicillin-streptomycin. Then, on the day before the introduction of the expression vector, these cells were seeded onto a 35-mm dish, and cultured in 1.5 ml of the culture solution. […] Thereafter, the mixture solution of the expression vector was added to the cultured cells. After that, G418 was added thereto at a concentration of 500 μg/mL, and further cultured for one week. Next, viable cells were detached using a trypsin solution, diluted with a culture solution containing G418 (500 μg/ml), and then cultured in a 96-well plate at 0.5 cells/well. Subsequently, cells which formed single colonies were cultured to expand.
Then, the cells were observed using an IX-71 inverted fluorescence microscope (the magnification of the objective lens: 20×), a U-MGFPHQ filter, and an ORCA-ER digital camera. The homodimer formation of STAT3 was induced by adding Human Recombinant IL-6 (manufactured by R&D SYSTEMS, INC.) to the buffer to the final concentration of 100 ng/ml.

fluorescence intensity relative to that before the addition ([2]; when formation of fluorescent foci started to be observed immediately after the B/B Homodimerizer addition): 1.9 times
Compound: CC[C@H](C(=O)N1CCCC[C@H]1C(=O)O[C@H](CCc1ccc(OC)c(OC)c1)c1cccc(OCC(=O)NCC(CNC(=O)COc2cccc([C@@H](CCc3ccc(OC)c(OC)c3)OC(=O)[C@@H]3CCCCN3C(=O)[C@@H](CC)c3cc(OC)c(OC)c(OC)c3)c2)CN(C)C)c1)c1cc(OC)c(OC)c(OC)c1 [B/B Homodimerizer]
fluorescent focus formation ([1]; 38 minutes after the drug addition, none before addition): fluorescent foci were observed in multiple cells | fluorescent focus formation ([1]; 76 minutes after the addition): many cells which exhibited distinctive fluorescent foci were observed | fluorescent focus formation ([2]; 500 nM, 90 minutes after the B/B Homodimerizer addition): distinctive fluorescent foci were observed in multiple cells | fluorescent focus formation [3]: fluorescent foci were formed only in a few cells | fluorescent focus formation [4]: drug-addition dependent increases in fluorescent foci were observed | fluorescent focus formation [5]: fluorescent focus formations attributable to the addition of the drug

fluorescent focus formation ([6]; 60 seconds after the ligand was added, Calmodulin-mAG1 or Calmodulin-mUkG1 with M13peptide-PB1): fluorescent focus formation was detected
Compound: NCCc1c[nH]cn1 [histamine]
extinction of fluorescent foci ([6]; 300 seconds after the ligand addition (FIG. 35)): the fluorescent foci (assemblies) were extinguished

Compound: EGF: epidermal growth factor, manufactured by Sigma-Aldrich Co. (NSDSECPLSHDGYCLHDGVCMYIEALDKYACNCVVGYIGERCQYRDLKWWELR; UniProt P01133 971-1023, looked up)
fluorescent focus formation ([7]; 50 ng/ml, 8 minutes, ERK2-mAG1-PB1 transient, none before addition): fluorescent foci were observed in multiple cells | fluorescent focus formation ([7]; 8 minutes after EGF addition, cells constitutively expressing ERK2-PB1-hmAG1 (FIG. 27)): fluorescent foci indicating the homodimer formation of ERK2 were detected

Compound: IL-6: Human Recombinant IL-6, manufactured by R&D SYSTEMS, INC.
fluorescent focus formation [8]: fluorescent foci were observed in multiple cells
